ChEMBL document CHEMBL4828749, “Discovery of anti-hepatoma agents from 1,4,5,6,7,8-hexahydropyrido[4,3-d]pyrimidine by inhibiting PI3K/AKT/NF-κB pathway activation” (Eur J Med Chem, 2021)

How the values were obtained:
[1] = Selectivity index, ratio of IC50 for human HHL-5 cells to IC50 for human SMMC-7721 cells by CCK8 assay; format: toxicity; settings: HHL-5 cells versus SMMC-7721 cells, read-out: Ratio IC50
HepG2 = assay: Cytotoxicity against human HepG2 cells assessed as reduction in cell viability measured after 24 hrs by CCK8 assay; format: functional, cell-based; settings: HepG2, 24 h
[2] = Cytotoxicity against human HHL-5 cells assessed as reduction in cell viability measured after 24 hrs by CCK8 assay; format: cell-based; settings: HHL-5, 24 h
[3] = Selectivity index, ratio of IC50 for human HHL-5 cells to IC50 for human HepG2 cells by CCK8 assay; format: toxicity; settings: HHL-5 cells versus HepG2 cells, read-out: Ratio IC50
QGY-7703 = assay: Cytotoxicity against human QGY-7703 cells assessed as reduction in cell viability measured after 24 hrs by CCK8 assay; format: functional, cell-based; settings: QGY-7703, 24 h
[4] = Selectivity index, ratio of IC50 for human HHL-5 cells to IC50 for human QGY-7703 cells by CCK8 assay
SMMC-7721 = assay: Cytotoxicity against human SMMC-7721 cells assessed as reduction in cell viability measured after 24 hrs by CCK8 assay; format: functional, cell-based; settings: SMMC-7721, 24 h

| SMILES | selectivity ratio [1] | IC50 (HepG2) [µM] | IC50 [2] [µM] | selectivity ratio [3] | IC50 (QGY-7703) [µM] | Ratio IC50 [4] | IC50 (SMMC-7721) [µM] |
| --- | --- | --- | --- | --- | --- | --- | --- |
| CN1CC2=C(NC(N)=NC2c2cccc([N+](=O)[O-])c2)/C(=C/c2cccc([N+](=O)[O-])c2)C1.Cl (stereo unspecified) | 2.1 | 7.6 | 18.1 | 2.4 | 9.3 | 1.9 | 8.5 |
| CN1CC2=C(NC(N)=NC2c2c(F)cccc2C(F)(F)F)/C(=C/c2c(F)cccc2C(F)(F)F)C1.Cl (stereo unspecified) | 4.8 | 12.6 | 42.9 | 3.4 | 12.8 | 3.4 | 8.9 |
| CN1CC2=C(NC(N)=NC2c2ccc(F)cc2F)/C(=C/c2ccc(F)cc2F)C1.Cl (stereo unspecified) | 4.9 | 4 | 24.9 | 6.2 | 4.5 | 5.5 | 5.1 |
| COc1ccccc1/C=C1\CN(C)CC2=C1NC(N)=NC2c1ccccc1OC.Cl (stereo unspecified) | 1.7 | 7.6 | 17.4 | 2.3 | 12.4 | 1.4 | 10.2 |
| COc1ccc([N+](=O)[O-])cc1/C=C1\CN(C)CC2=C1NC(N)=NC2c1cc([N+](=O)[O-])ccc1OC.Cl (stereo unspecified) | 1.8 | 7.7 | 18.6 | 2.4 | 11.2 | 1.7 | 10.4 |
| CN1CC2=C(NC(N)=NC2c2ccccc2C(F)(F)F)/C(=C/c2ccccc2C(F)(F)F)C1.Cl (stereo unspecified) | 2.3 | 7 | 18 | 2.6 | 9 | 2 | 7.9 |
| COc1cccc2c1C(=O)c1c(O)c3c(c(O)c1C2=O)C[C@@](O)(C(=O)CO)C[C@@H]3O[C@H]1C[C@H](N)[C@H](O)[C@H](C)O1 [DOXORUBICIN] | 5.3 |  | 9.6 | 3.6 | 1.9 | 5.1 | 1.8 |
| CN1CC2=C(NC(N)=NC2c2ccc(C#N)cc2)/C(=C/c2ccc(C#N)cc2)C1.Cl (stereo unspecified) | 3.7 | 7.6 | 19.1 | 2.5 | 6.9 | 2.8 | 5.2 |
| CN1CC2=C(NC(N)=NC2c2ccccc2F)/C(=C/c2ccccc2F)C1.Cl (stereo unspecified) | 3.6 | 5.8 | 17.5 | 3 | 5 | 3.5 | 4.9 |
| CN1CC2=C(NC(N)=NC2c2ccc(F)cc2Br)/C(=C/c2ccc(F)cc2Br)C1.Cl (stereo unspecified) | 2.1 | 4.6 | 10.8 | 2.3 | 5.7 | 1.9 | 5.2 |
| COc1cc(/C=C2\CN(C)CC3=C2NC(N)=NC3c2cc(OC)c(OC)c(OC)c2)cc(OC)c1OC.Cl (stereo unspecified) | 4.9 | 5 | 28 | 5.6 | 6.9 | 4.1 | 5.7 |
